Experimental data: ChEMBL document CHEMBL4393687, “Multi-targeted ChEI-copper chelating molecules as neuroprotective agents” (Eur J Med Chem, 2019)
Activity calls are given as the source filed them. No cut-off for these calls is given here.

Key:
[1] = Antioxidant activity assessed as DPPH free radical scavenging activity at 10 uM after 30 mins incubation in dark by UV-Visible spectrophotometric analysis relative to control; format: functional
[2] = Antioxidant activity assessed as DPPH free radical scavenging activity after 30 mins incubation in dark by UV-Visible spectrophotometric analysis; format: functional
[3] = target: Acetylcholinesterase (Electrophorus electricus) (UniProt O42275); experiment: Inhibition of electric eel AChE at 50 nM using acetylthiocholine iodide as substrate preincubated for 60 mins followed by substrate addition measured for 5 mins by Ellman's method
[4] = target: Cholinesterase (Equus caballus) (UniProt P81908); experiment: Inhibition of equine serum BChE at 50 nM using acetylthiocholine iodide as substrate preincubated for 60 mins followed by substrate addition measured for 5 mins by Ellman's method
[5] = Cytotoxicity against mouse HT22 cells assessed as cell viability at 30 uM after 24 hrs by MTT assay relative to control; format: cell-based, HT-22; details: read-out: Activity
[6] = Cytotoxicity against mouse HT22 cells assessed as cell viability at 100 uM after 24 hrs by MTT assay relative to control; format: cell-based, HT-22; details: read-out: Activity
[7] = Metal chelating activity assessed as compound-Cu2+ complex formation by measuring shift in maximum absorption at 10 uM after 30 mins by UV-vis spectrophotometric analysis
[8] = Metal chelating activity assessed as compound-Cu2+ complex formation at 1:1 ratio of test compound to CuCl2 incubated for 30 mins by UV-vis spectrophotometric analysis
[9] = Metal chelating activity assessed as compound-Cu2+ complex formation at 1:2 ratio of test compound to CuCl2 incubated for 30 mins by UV-vis spectrophotometric analysis
HT-22 = experiment: Neuroprotective activity against glutamate-induced neuronal damage in mouse HT22 cells at 3 to 30 uM pretreated for 30 mins followed by glutamate challenge measured after 24 hrs by MTT assay; format: functional, cell-based

Acetylcholinesterase (Electrophorus electricus), sequence (O42275 24-633 limits assumed): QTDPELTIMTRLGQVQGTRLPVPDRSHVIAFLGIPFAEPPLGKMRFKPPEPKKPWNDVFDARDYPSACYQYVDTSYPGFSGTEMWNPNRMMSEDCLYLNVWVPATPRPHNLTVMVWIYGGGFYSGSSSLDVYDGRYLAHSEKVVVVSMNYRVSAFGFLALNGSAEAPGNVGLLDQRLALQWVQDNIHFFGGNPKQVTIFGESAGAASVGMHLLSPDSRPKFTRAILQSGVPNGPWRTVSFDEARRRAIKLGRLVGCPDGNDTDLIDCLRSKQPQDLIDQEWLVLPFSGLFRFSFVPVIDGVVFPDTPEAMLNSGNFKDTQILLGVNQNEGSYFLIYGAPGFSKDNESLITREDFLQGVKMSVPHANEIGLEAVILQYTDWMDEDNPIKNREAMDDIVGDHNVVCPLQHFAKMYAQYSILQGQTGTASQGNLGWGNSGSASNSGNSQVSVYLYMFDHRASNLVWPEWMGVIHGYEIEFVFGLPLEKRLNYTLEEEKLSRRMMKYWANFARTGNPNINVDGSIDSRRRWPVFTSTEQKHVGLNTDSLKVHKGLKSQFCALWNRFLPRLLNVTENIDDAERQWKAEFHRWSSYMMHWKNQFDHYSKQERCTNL
Cholinesterase (Equus caballus), sequence (P81908 whole entry): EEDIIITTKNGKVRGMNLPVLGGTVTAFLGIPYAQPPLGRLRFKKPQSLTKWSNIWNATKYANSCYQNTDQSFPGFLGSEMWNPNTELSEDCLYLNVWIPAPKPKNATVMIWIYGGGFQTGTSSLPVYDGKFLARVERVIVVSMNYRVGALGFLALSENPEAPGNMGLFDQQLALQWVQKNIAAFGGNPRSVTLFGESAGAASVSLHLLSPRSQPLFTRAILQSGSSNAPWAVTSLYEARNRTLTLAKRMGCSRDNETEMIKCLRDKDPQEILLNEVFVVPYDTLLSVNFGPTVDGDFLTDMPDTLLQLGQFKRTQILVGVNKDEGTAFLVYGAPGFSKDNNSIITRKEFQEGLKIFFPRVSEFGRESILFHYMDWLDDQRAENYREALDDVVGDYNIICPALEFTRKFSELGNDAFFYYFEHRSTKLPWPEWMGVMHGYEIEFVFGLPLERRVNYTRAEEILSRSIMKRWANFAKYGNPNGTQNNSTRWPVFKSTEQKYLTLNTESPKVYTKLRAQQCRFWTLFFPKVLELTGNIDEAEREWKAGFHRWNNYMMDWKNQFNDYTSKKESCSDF

Compound: Cc1c(C)c2c(c(C)c1O)CCC(C)(C(=O)O)O2 (configuration not stated) [TROLOX]
- Activity [1]: 24.3%
- IC50 [2]: 23.5 µM

Compound: CCN(C)C(=O)Oc1cccc(NCc2ccccn2)c1
- inhibition [3]: 8.51%
- inhibition [4]: 58.9%
- Activity [1]: 7.4%
- viability at 24 h, 30 µM [5]: 91.3%
- viability at 24 h, 100 µM [6]: 80.5%

Compound: CCC(CC)CNc1ccc(O)c(CNc2cccc(OC(=O)N(C)CC)c2)c1
- inhibition [3]: 9.01%
- inhibition [4]: 64.2%
- IC50 [2]: 26.5 µM
- Activity [7]: 50 nm
- Activity [8]: Active
- Activity [9]: Active
- viability at 24 h, 30 µM [5]: 85.8%
- viability at 24 h, 100 µM [6]: 25.2%
- Activity (HT-22): Active

Compound: CCC(CC)CNc1ccc(O)c(CNCCc2cccc(OC(=O)N(C)CC)c2)c1
- inhibition [3]: 3.36%
- inhibition [4]: 14.2%
- IC50 [2]: 28.7 µM

Compound: CCN(C)C(=O)Oc1cccc(NC(=O)c2cccnc2O)c1
- inhibition [3]: 1.87%
- inhibition [4]: 73.6%
- Activity [1]: 4.18%
- viability at 24 h, 30 µM [5]: 102%
- viability at 24 h, 100 µM [6]: 98.6%

Compound: CCN(C)C(=O)Oc1cccc(NCc2ccccc2O)c1
- inhibition [3]: 8.13%
- inhibition [4]: 38.5%
- Activity [1]: 13.8%
- viability at 24 h, 30 µM [5]: 103%
- viability at 24 h, 100 µM [6]: 80.3%

Compound: CCN(C)C(=O)Oc1cccc(CCNCc2ccccc2O)c1
- inhibition [3]: 3.58%
- inhibition [4]: 34.5%
- Activity [1]: 15.5%

Compound: CCN(C)C(=O)Oc1cccc([C@H](C)N(C)C)c1
- inhibition [3]: 2.59%
- inhibition [4]: 54.7%

Compound: CCN(C)C(=O)Nc1cccc(NC(=O)c2cccnc2O)c1
- Activity [1]: 3.62%
- viability at 24 h, 30 µM [5]: 97.2%
- viability at 24 h, 100 µM [6]: 96.1%

Compound: CCN(C)C(=O)Oc1cccc(CCNC(=O)c2cccnc2O)c1
- inhibition [3]: 5.43%
- inhibition [4]: 53.7%
- Activity [1]: 2.21%
- viability at 24 h, 30 µM [5]: 106%
- viability at 24 h, 100 µM [6]: 99.4%

Compound: CCN(C)C(=O)Oc1cccc(CNC(=O)c2cccnc2O)c1
- inhibition [3]: 7.59%
- inhibition [4]: 46.5%
- Activity [1]: 2.21%
- viability at 24 h, 30 µM [5]: 101%
- viability at 24 h, 100 µM [6]: 82.5%

Compound: CCN(C)C(=O)Oc1cccc(CNCc2ccccc2O)c1
- inhibition [3]: 4.06%
- inhibition [4]: 30.5%
- Activity [1]: 17.7%
- viability at 24 h, 30 µM [5]: 96.6%
- viability at 24 h, 100 µM [6]: 90.3%
